Reference: paper PMC7394103 (Frontiers in Pharmacology, 2020)
Structures can show the parent of a compound that is named as a salt. Where two headings read alike, the source gives them in different places.

Key:
[1] = tested on: c-Jun phosphorylation in FLS; design: method as in Schepetkin et al., 2015; settings: ref Schepetkin et al., 2015; cited from earlier work
CIA in DBA1/J mice = settings: ref Schepetkin et al., 2015, cited from earlier work
[2] = design: method as in Plotnikov et al., 2020; settings: rats, i.p.; ref Plotnikov et al., 2020; cited from earlier work
[3] = design: method as in Schepetkin et al., 2012; settings: mice, 30 mg/kg i.p., serum; ref Schepetkin et al., 2012; cited from earlier work
[4] = tested on: IL-6 secretion by synovial SW982 cells; assay: IL-1β-induced IL-6 secretion by SW982 cells (ELISA); format: cell-based, human; settings: Homo sapiens, SW982; shorter incubation period (12 h), TRYP absent; read-out: IC50, IL-1β-induced IL-6 secretion by SW982 cells
Method: FLS, HUVEC, SW982, and THP-1 cells were plated in 96 well plates (10^4 to 10^5 cells/well) for 48 h before treatment. At 2 days post-confluency, the cells were serum-starved and washed twice (with the exception of THP-1 cell, which were not washed) with FBS-free medium prior to the addition of test compounds. […] Culture supernatants were collected and stored at –80°C. The levels of MMP-1 and MMP-3 were determined in culture supernatants using commercially available ELISA kits according to the manufacturer’s instructions (R&D System, Minneapolis, MN, USA). IL-6 levels were also determined in the supernatants using a human IL-6 ELISA kit (BD Biosciences, San Jose, CA, USA).

ON=C1c2ccccc2-c2nc3ccccc3nc21 [IQ-1S, 11H-indeno[1,2-b]quinoxalin-11-one oxime salt]
c-Jun phosphorylation [1]: inhibited c-Jun phosphorylation
reduction of arthritis in the CIA model (CIA in DBA1/J mice; 5 mg/kg i.p.): not very effective
reduction of arthritis in the CIA model (CIA in DBA1/J mice; 30 and 50 mg/kg i.p.): equally effective
half-life in circulation [2]: 12 h
time of peak serum concentration [2]: 5 min
AUC 0–12 h [3]: 7.4 µM·h

O=C1c2ccccc2-c2nc3ccccc3nc21 [IQ-18]
anti-inflammatory activity or therapeutic effects in CIA (CIA in DBA1/J mice; 2012, Schepetkin et al.): did not have any anti-inflammatory activity or therapeutic effects in CIA

Oc1c2ccccc2c2c3c(cccc13)N=N2 [SP600125, reference compound]
IC50 [4]: 1300 ± 500 nM
